# Experimental data taken from the supplement of paper PMC10307832.
# Assays:
# Test in all cases: relative viability (nuclei count vs DMSO), 5 days (fraction); higher = more cells survive
# Etoposide + Palbociclib = compound: COc1cc([C@@H]2c3cc4c(cc3[C@@H](O[C@@H]3O[C@@H]5CO[C@@H](C)O[C@H]5[C@H](O)[C@H]3O)[C@H]3COC(=O)[C@H]23)OCO4)cc(OC)c1O [Etoposide] + CC(=O)c1c(C)c2cnc(Nc3ccc(N4CCNCC4)cn3)nc2n(C2CCCC2)c1=O [Palbociclib] (partner 0.5 µM)
# Procedure, shortened: (§1)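 Relative viability equals treated-well nuclei counts divided by vehicle-well nuclei counts. Counts came from 4× images of lung cancer cell lines grown in 1536-well plates for 5 days after pin-tool dosing on the day after seeding. Dosing used one drug alone or a fixed anchor-drug dose plus five library-drug doses (not always all listed) in √10 steps, and values are medians of duplicate plates.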
# Bleomycin + AZD7762 = compound: CC1=C(N=C(N=C1N)[C@H](CC(=O)N)NC[C@@H](C(=O)N)N)C(=O)N[C@@H]([C@H](C2=CN=CN2)OC3C(C(C(C(O3)CO)O)O)OC4C(C(C(C(O4)CO)O)OC(=O)N)O)C(=O)N[C@H](C)[C@H]([C@H](C)C(=O)N[C@@H]([C@@H](C)O)C(=O)NCCC5=NC(=CS5)C6=NC(=CS6)C(=O)NCCC[S+](C)C)O [Bleomycin] + NC(=O)Nc1cc(-c2cccc(F)c2)sc1C(=O)N[C@H]1CCCNC1 [AZD7762] (partner 0.2 µM); conditions: main component drawn
# Procedure, shortened: as §1
# Bleomycin + Palbociclib = compound: CC1=C(N=C(N=C1N)[C@H](CC(=O)N)NC[C@@H](C(=O)N)N)C(=O)N[C@@H]([C@H](C2=CN=CN2)OC3C(C(C(C(O3)CO)O)O)OC4C(C(C(C(O4)CO)O)OC(=O)N)O)C(=O)N[C@H](C)[C@H]([C@H](C)C(=O)N[C@@H]([C@@H](C)O)C(=O)NCCC5=NC(=CS5)C6=NC(=CS6)C(=O)NCCC[S+](C)C)O [Bleomycin] + CC(=O)c1c(C)c2cnc(Nc3ccc(N4CCNCC4)cn3)nc2n(C2CCCC2)c1=O [Palbociclib] (partner 0.5 µM); conditions: main component drawn
# Procedure, shortened: as §1
# Bleomycin + Luminespib = compound: CC1=C(N=C(N=C1N)[C@H](CC(=O)N)NC[C@@H](C(=O)N)N)C(=O)N[C@@H]([C@H](C2=CN=CN2)OC3C(C(C(C(O3)CO)O)O)OC4C(C(C(C(O4)CO)O)OC(=O)N)O)C(=O)N[C@H](C)[C@H]([C@H](C)C(=O)N[C@@H]([C@@H](C)O)C(=O)NCCC5=NC(=CS5)C6=NC(=CS6)C(=O)NCCC[S+](C)C)O [Bleomycin] + CCNC(=O)c1noc(-c2cc(C(C)C)c(O)cc2O)c1-c1ccc(CN2CCOCC2)cc1 [Luminespib] (partner 0.01 µM); conditions: main component drawn
# Procedure, shortened: as §1
cell line,measurement,setting,value
NCI-H2126,relative viability,Etoposide + Palbociclib; first compound 0.01 µM,0.32
same,relative viability,Etoposide + Palbociclib; first compound 0.03162 µM,0.39
same,relative viability,Etoposide + Palbociclib; first compound 0.1 µM,0.316
same,relative viability,Etoposide + Palbociclib; first compound 0.3162 µM,0.368
same,relative viability,Etoposide + Palbociclib; first compound 1 µM,0.34
same,relative viability,Bleomycin + AZD7762; first compound 0.01 µM,0.932
same,relative viability,Bleomycin + AZD7762; first compound 0.03162 µM,0.963
same,relative viability,Bleomycin + AZD7762; first compound 0.1 µM,1.15
same,relative viability,Bleomycin + AZD7762; first compound 0.3162 µM,0.894
same,relative viability,Bleomycin + AZD7762; first compound 1 µM,0.922
same,relative viability,Bleomycin + Palbociclib; first compound 0.01 µM,0.338
same,relative viability,Bleomycin + Palbociclib; first compound 0.03162 µM,0.384
same,relative viability,Bleomycin + Palbociclib; first compound 0.1 µM,0.298
same,relative viability,Bleomycin + Palbociclib; first compound 0.3162 µM,0.33
same,relative viability,Bleomycin + Palbociclib; first compound 1 µM,0.319
same,relative viability,Bleomycin + Luminespib; first compound 0.01 µM,0.954
same,relative viability,Bleomycin + Luminespib; first compound 0.03162 µM,0.934
same,relative viability,Bleomycin + Luminespib; first compound 0.1 µM,0.872
same,relative viability,Bleomycin + Luminespib; first compound 0.3162 µM,0.566
same,relative viability,Bleomycin + Luminespib; first compound 1 µM,0.551
LK-2,relative viability,Etoposide + Palbociclib; first compound 0.01 µM,0.618
same,relative viability,Etoposide + Palbociclib; first compound 0.03162 µM,0.588
same,relative viability,Etoposide + Palbociclib; first compound 0.1 µM,0.451
same,relative viability,Etoposide + Palbociclib; first compound 0.3162 µM,0.412
same,relative viability,Etoposide + Palbociclib; first compound 1 µM,0.275
same,relative viability,Bleomycin + AZD7762; first compound 0.01 µM,0.26
same,relative viability,Bleomycin + AZD7762; first compound 0.03162 µM,0.271
same,relative viability,Bleomycin + AZD7762; first compound 0.1 µM,0.218
same,relative viability,Bleomycin + AZD7762; first compound 0.3162 µM,0.134
same,relative viability,Bleomycin + AZD7762; first compound 1 µM,0.116
same,relative viability,Bleomycin + Palbociclib; first compound 0.01 µM,0.45
same,relative viability,Bleomycin + Palbociclib; first compound 0.03162 µM,0.299
same,relative viability,Bleomycin + Palbociclib; first compound 0.1 µM,0.418
same,relative viability,Bleomycin + Palbociclib; first compound 0.3162 µM,0.15
same,relative viability,Bleomycin + Palbociclib; first compound 1 µM,0.134
same,relative viability,Bleomycin + Luminespib; first compound 0.01 µM,0.172
same,relative viability,Bleomycin + Luminespib; first compound 0.03162 µM,0.15
same,relative viability,Bleomycin + Luminespib; first compound 0.1 µM,0.185
same,relative viability,Bleomycin + Luminespib; first compound 0.3162 µM,0.161
same,relative viability,Bleomycin + Luminespib; first compound 1 µM,0.169
NCI-H1437,relative viability,Etoposide + Palbociclib; first compound 0.01 µM,0.278
same,relative viability,Etoposide + Palbociclib; first compound 0.03162 µM,0.352
same,relative viability,Etoposide + Palbociclib; first compound 0.1 µM,0.279
same,relative viability,Etoposide + Palbociclib; first compound 0.3162 µM,0.293
same,relative viability,Etoposide + Palbociclib; first compound 1 µM,0.269
same,relative viability,Bleomycin + AZD7762; first compound 0.01 µM,1.04
same,relative viability,Bleomycin + AZD7762; first compound 0.03162 µM,1.12
same,relative viability,Bleomycin + AZD7762; first compound 0.1 µM,1.14
same,relative viability,Bleomycin + AZD7762; first compound 0.3162 µM,0.765
same,relative viability,Bleomycin + AZD7762; first compound 1 µM,0.746
same,relative viability,Bleomycin + Palbociclib; first compound 0.01 µM,0.306
same,relative viability,Bleomycin + Palbociclib; first compound 0.03162 µM,0.224
same,relative viability,Bleomycin + Palbociclib; first compound 0.1 µM,0.293
same,relative viability,Bleomycin + Palbociclib; first compound 0.3162 µM,0.256
same,relative viability,Bleomycin + Palbociclib; first compound 1 µM,0.221
same,relative viability,Bleomycin + Luminespib; first compound 0.01 µM,1.01
same,relative viability,Bleomycin + Luminespib; first compound 0.03162 µM,0.999
same,relative viability,Bleomycin + Luminespib; first compound 0.1 µM,1
same,relative viability,Bleomycin + Luminespib; first compound 0.3162 µM,0.63
same,relative viability,Bleomycin + Luminespib; first compound 1 µM,0.585
COR-L23,relative viability,Etoposide + Palbociclib; first compound 0.01 µM,0.23
same,relative viability,Etoposide + Palbociclib; first compound 0.03162 µM,0.27
same,relative viability,Etoposide + Palbociclib; first compound 0.1 µM,0.27
same,relative viability,Etoposide + Palbociclib; first compound 0.3162 µM,0.261
same,relative viability,Etoposide + Palbociclib; first compound 1 µM,0.146
same,relative viability,Bleomycin + Palbociclib; first compound 0.01 µM,0.184
same,relative viability,Bleomycin + Palbociclib; first compound 0.03162 µM,0.237
same,relative viability,Bleomycin + Palbociclib; first compound 0.1 µM,0.151
same,relative viability,Bleomycin + Palbociclib; first compound 0.3162 µM,0.115
same,relative viability,Bleomycin + Palbociclib; first compound 1 µM,0.0887
same,relative viability,Bleomycin + Luminespib; first compound 0.01 µM,0.501
same,relative viability,Bleomycin + Luminespib; first compound 0.03162 µM,0.352
same,relative viability,Bleomycin + Luminespib; first compound 0.1 µM,0.258
same,relative viability,Bleomycin + Luminespib; first compound 0.3162 µM,0.122
same,relative viability,Bleomycin + Luminespib; first compound 1 µM,0.122
ABC-1,relative viability,Etoposide + Palbociclib; first compound 0.01 µM,0.572
same,relative viability,Etoposide + Palbociclib; first compound 0.03162 µM,0.71
same,relative viability,Etoposide + Palbociclib; first compound 0.1 µM,0.529
same,relative viability,Etoposide + Palbociclib; first compound 0.3162 µM,0.515
same,relative viability,Etoposide + Palbociclib; first compound 1 µM,0.419
same,relative viability,Bleomycin + AZD7762; first compound 0.01 µM,0.748
same,relative viability,Bleomycin + AZD7762; first compound 0.03162 µM,1
same,relative viability,Bleomycin + AZD7762; first compound 0.1 µM,0.845
same,relative viability,Bleomycin + AZD7762; first compound 0.3162 µM,0.573
same,relative viability,Bleomycin + AZD7762; first compound 1 µM,0.34
same,relative viability,Bleomycin + Palbociclib; first compound 0.01 µM,0.467
same,relative viability,Bleomycin + Palbociclib; first compound 0.03162 µM,0.822
same,relative viability,Bleomycin + Palbociclib; first compound 0.1 µM,0.789
same,relative viability,Bleomycin + Palbociclib; first compound 0.3162 µM,0.512
same,relative viability,Bleomycin + Palbociclib; first compound 1 µM,0.433
same,relative viability,Bleomycin + Luminespib; first compound 0.01 µM,0.578
same,relative viability,Bleomycin + Luminespib; first compound 0.03162 µM,0.737
same,relative viability,Bleomycin + Luminespib; first compound 0.1 µM,0.561
same,relative viability,Bleomycin + Luminespib; first compound 0.3162 µM,0.198
same,relative viability,Bleomycin + Luminespib; first compound 1 µM,0.225
NCI-H1648,relative viability,Etoposide + Palbociclib; first compound 0.03162 µM,0.289
same,relative viability,Etoposide + Palbociclib; first compound 0.1 µM,0.211
same,relative viability,Etoposide + Palbociclib; first compound 0.3162 µM,0.297
same,relative viability,Etoposide + Palbociclib; first compound 1 µM,0.265
same,relative viability,Bleomycin + AZD7762; first compound 0.01 µM,0.623
same,relative viability,Bleomycin + AZD7762; first compound 0.03162 µM,0.716
same,relative viability,Bleomycin + AZD7762; first compound 0.1 µM,0.512
same,relative viability,Bleomycin + AZD7762; first compound 0.3162 µM,0.373
same,relative viability,Bleomycin + AZD7762; first compound 1 µM,0.375
same,relative viability,Bleomycin + Palbociclib; first compound 0.01 µM,0.217
same,relative viability,Bleomycin + Palbociclib; first compound 0.03162 µM,0.32
same,relative viability,Bleomycin + Palbociclib; first compound 0.1 µM,0.27
same,relative viability,Bleomycin + Palbociclib; first compound 0.3162 µM,0.27
same,relative viability,Bleomycin + Palbociclib; first compound 1 µM,0.245
NCI-H1703,relative viability,Bleomycin + AZD7762; first compound 0.01 µM,0.131
same,relative viability,Bleomycin + AZD7762; first compound 0.03162 µM,0.139
same,relative viability,Bleomycin + AZD7762; first compound 0.1 µM,0.128
same,relative viability,Bleomycin + AZD7762; first compound 0.3162 µM,0.122
same,relative viability,Bleomycin + AZD7762; first compound 1 µM,0.114
SW 1573,relative viability,Etoposide + Palbociclib; first compound 0.01 µM,0.363
same,relative viability,Etoposide + Palbociclib; first compound 0.03162 µM,0.349
same,relative viability,Etoposide + Palbociclib; first compound 0.1 µM,0.288
same,relative viability,Etoposide + Palbociclib; first compound 0.3162 µM,0.16
same,relative viability,Etoposide + Palbociclib; first compound 1 µM,0.109
same,relative viability,Bleomycin + Palbociclib; first compound 0.01 µM,0.277
same,relative viability,Bleomycin + Palbociclib; first compound 0.03162 µM,0.3
same,relative viability,Bleomycin + Palbociclib; first compound 0.1 µM,0.265
same,relative viability,Bleomycin + Palbociclib; first compound 0.3162 µM,0.144
same,relative viability,Bleomycin + Palbociclib; first compound 1 µM,0.167
same,relative viability,Bleomycin + Luminespib; first compound 0.01 µM,0.508
same,relative viability,Bleomycin + Luminespib; first compound 0.03162 µM,0.616
same,relative viability,Bleomycin + Luminespib; first compound 0.1 µM,0.118
same,relative viability,Bleomycin + Luminespib; first compound 0.3162 µM,0.174
same,relative viability,Bleomycin + Luminespib; first compound 1 µM,0.116
COR-L 105,relative viability,Etoposide + Palbociclib; first compound 0.01 µM,0.423
same,relative viability,Etoposide + Palbociclib; first compound 0.03162 µM,0.41
same,relative viability,Etoposide + Palbociclib; first compound 0.1 µM,0.383
same,relative viability,Etoposide + Palbociclib; first compound 0.3162 µM,0.394
same,relative viability,Etoposide + Palbociclib; first compound 1 µM,0.366
same,relative viability,Bleomycin + Palbociclib; first compound 0.01 µM,0.389
same,relative viability,Bleomycin + Palbociclib; first compound 0.03162 µM,0.37
same,relative viability,Bleomycin + Palbociclib; first compound 0.1 µM,0.435
same,relative viability,Bleomycin + Palbociclib; first compound 0.3162 µM,0.392
same,relative viability,Bleomycin + Palbociclib; first compound 1 µM,0.395
same,relative viability,Bleomycin + Luminespib; first compound 0.01 µM,0.665
same,relative viability,Bleomycin + Luminespib; first compound 0.03162 µM,0.743
same,relative viability,Bleomycin + Luminespib; first compound 0.1 µM,0.562
same,relative viability,Bleomycin + Luminespib; first compound 0.3162 µM,0.555
same,relative viability,Bleomycin + Luminespib; first compound 1 µM,0.386
